Like-named read-outs stand apart in the source and are kept apart here.
Key:
[1] = system: astrocyte-microglia co-culture (mixed glial cell culture) exposed to Aβ1-42; assay: M1/M2 marker mRNA expression (RT-qPCR) in mixed glial culture exposed to Aβ1-42; assay type: cell-based, C57BL/6 mice
Description: C57BL/6 mice are purchased from Charles River. Mixed glial cell cultures were prepared from the brains of 1-3 day newborn mice. Briefly, after carefully removing meninges and large blood vessels, the brains were pooled and then dissociated by manual dispersion with a fire-polished Pasteur pipette. The cells were allowed to attach and grow at 37° C. in DMEM supplemented with 10% fetal bovine serum (FBS) (Euroclone), 4 mM L-glutamine, 200 U/ml penicillin/streptomycin in a water saturated atmosphere containing 5% CO2 for two week.
Soluble Aβ 1-42 were dissolved in sterile water to a final concentration of 2.5 mM, divided into aliquots and frozen. For experiments, mixed glial cells were incubated with soluble (not aggregated) Aβ 1-42, added at a concentration of 10 μM, in presence of CHF5074 (solved in 0.2% DMSO) or vehicle. Incubation was carried out for different times (from 1 to 8 days) in a Neurobasal/B27 medium. At the end of these periods, neuronal cell death by necrosis was evaluated by measuring the amount of lactate dehydrogenase (LDH) released into the culture medium using the CytoTox 96-non-radioactive cytotoxicity assay (Promega).
Total RNA was purified from cultured cells using the RNeasy Mini Kit for total RNA extractions (Qiagen). RNA was reverse transcribed using the Quantitect® Reverse Transcription Kit (Qiagen) with optimized mix of oligo-dT and random primers as primer and 1 μg of total RNA from mixed primary culture or co-culture. The reverse transcription reaction were performed in a total volume of 20 μL containing 5×RT-Buffer (that included dNTPs and Mg^2+), 50 U RT (Reverse trascriptase), 20 U RNase Inhibitor in RNAse-DNase free water for 10 min at 25° C., 2 h at 37° C. and 10 min at 85° C. Individual 25 μL SYBR Green real-time PCR reactions consisted of 2 μL of cDNA, 12.5 μL of 2× iQ™ SYBR Green Supermix (Bio-Rad), and 1.5 μL of each 10 μM optimized forward and reverse primers in 7.5 μL RNase-free water.
The PCR were performed on a Bio-Rad iCycler Detection System using a 3-stage program: 3 min at 50° C., 10 min at 95° C. and 40 cycles of 30 sec at 94° C. and 45 secat 60° C. For standardization of quantification, β-actin were amplified simultaneously. Sets of primer were designed to amplify by Real-time RT-PCR (q-RT-PCR) and RT-PCR genes expressed by classically activated (M1) microglia: • TNFα (Tumor Necrosis Factor α); • IL-1β (Interleukin1β); • iNOS (inducible Nitric Oxide Sinthase); and by alternatively activated (M2) microglia: • ARG1 (Arginase 1); • MRC1 (C-type mannose receptor 1); • TREM2 (Triggering Receptor Expressed on Myeloid cells-2). Primer3plus was used as primer designing tool and then checked the oligos (synthetized by Invitrogen) to verify melting temperatures and quality of the sequences.
Data were analyzed with Student's t-test for independent data. P<0.05 was considered as significant.
The effect of CHF5074 on the inflammatory response induced by Aβ was examined. Mixed astrocyte-microglia co-cultures were exposed to Aβ with or without CHF5074 at 3 μM concentration and examined for cytokine expression after 2 or 8 days. For classical activation of microglia, the expression of iNOS, beside TNFα and IL-1β was analyzed (see FIG. 2).
The alternative microglial activation markers (M2) in mixed glial cultures exposed to Aβ with and without CHF5074 for 2 days or 8 days were also investigated (see FIG. 3).

[2] = system: Aβ42 secretion in human neuroglioma cells over-expressing the Swedish mutated APP (H4swe); conditions: read-out: IC50 for lowering Aβ42 secretion; cited from earlier work
COX-1 = COX-1 (Homo sapiens, UniProt P23219); conditions: concentrations up to 100 μM; cited from earlier work
COX-1, sequence (P23219 24-599): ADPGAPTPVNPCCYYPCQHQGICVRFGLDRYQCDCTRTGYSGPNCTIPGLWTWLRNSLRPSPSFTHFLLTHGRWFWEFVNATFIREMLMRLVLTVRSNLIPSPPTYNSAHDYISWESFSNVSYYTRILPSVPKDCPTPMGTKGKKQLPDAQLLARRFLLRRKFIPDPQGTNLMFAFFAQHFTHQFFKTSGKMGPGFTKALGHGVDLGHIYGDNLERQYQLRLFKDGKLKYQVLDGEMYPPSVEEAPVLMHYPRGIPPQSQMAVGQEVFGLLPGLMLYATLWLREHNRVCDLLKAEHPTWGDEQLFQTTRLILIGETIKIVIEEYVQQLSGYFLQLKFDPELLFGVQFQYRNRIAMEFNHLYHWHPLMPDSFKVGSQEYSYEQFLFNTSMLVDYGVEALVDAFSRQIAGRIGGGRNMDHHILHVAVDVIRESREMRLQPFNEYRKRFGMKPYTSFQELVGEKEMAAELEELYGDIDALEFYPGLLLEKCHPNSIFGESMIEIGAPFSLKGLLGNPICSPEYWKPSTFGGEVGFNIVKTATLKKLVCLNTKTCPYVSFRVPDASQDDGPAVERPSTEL

COX-2 = molecular target: T1, COX-2 (Homo sapiens, UniProt P35354); conditions: concentrations up to 300 μM; cited from earlier work
T1 sequence (P35354 18-604): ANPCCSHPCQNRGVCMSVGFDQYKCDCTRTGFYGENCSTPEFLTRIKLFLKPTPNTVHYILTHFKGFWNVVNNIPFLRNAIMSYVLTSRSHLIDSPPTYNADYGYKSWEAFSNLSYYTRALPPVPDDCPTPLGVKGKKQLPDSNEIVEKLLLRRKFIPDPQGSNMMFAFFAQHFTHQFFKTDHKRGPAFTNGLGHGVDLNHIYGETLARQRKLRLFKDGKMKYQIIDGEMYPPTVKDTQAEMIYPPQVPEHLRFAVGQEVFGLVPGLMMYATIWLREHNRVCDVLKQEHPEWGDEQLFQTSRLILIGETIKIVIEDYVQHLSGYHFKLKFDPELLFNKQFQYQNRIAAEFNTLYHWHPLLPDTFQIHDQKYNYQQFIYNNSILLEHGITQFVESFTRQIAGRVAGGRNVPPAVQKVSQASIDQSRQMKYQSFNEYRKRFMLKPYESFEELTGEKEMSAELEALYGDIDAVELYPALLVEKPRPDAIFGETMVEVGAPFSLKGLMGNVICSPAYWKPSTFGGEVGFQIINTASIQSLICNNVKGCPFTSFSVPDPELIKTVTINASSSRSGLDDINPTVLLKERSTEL

[3] = system: Notch intracellular cleavage in human embryonic kidney 293swe cells; conditions: at 5 μM, HEK 293swe cells; cited from earlier work
NICD-responsive genes = conditions: at 100 μM; cited from earlier work
[4] = mice, cited from earlier work
[5] = rats; cited from earlier work
[6] = stated after the mice and rats data; cited from earlier work
[7] = guinea-pigs, cited from earlier work
[8] = dogs, cited from earlier work
[9] = system: transgenic mouse models of AD; conditions: cited from earlier work
TNFα = conditions: healthy subjects, short-term administration; cited from earlier work
AD patients = conditions: cited from earlier work
dendritic spine density = conditions: mice; cited from earlier work

Structure (SMILES): O=C(O)C1(c2ccc(-c3ccc(Cl)c(Cl)c3)c(F)c2)CC1 [CHF 5074, 1-(3′,4′-dichloro-2-fluorobiphenyl-4-yl)cyclopropanecarboxylic acid]
- ARG1 expression ([1]; 3 μM with 10 μM Aβ1-42, 2 days): no change
- IL-1β mRNA expression ([1]; 3 μM with 10 μM Aβ1-42, 2 days): significantly decreased
- TNFα mRNA expression ([1]; 3 μM with 10 μM Aβ1-42, 2 days): significantly decreased
- iNOS mRNA expression ([1]; 3 μM with 10 μM Aβ1-42, 2 days): significantly decreased
- increase of TREM2 mRNA over the basal value ([1]; 3 μM with 10 μM Aβ1-42, 2 days): ~60%
- MRC1 mRNA level ([1]; 3 μM with 10 μM Aβ1-42, 2 days, Aβ alone reduced MRC1 to about 50% of basal): near a three-fold increase
- M2 mRNAs (MRC1, TREM2 and ARG1) expression ([1]; 3 μM with 10 μM Aβ1-42, 8 days): None of the tested M2 mRNAs (MRC1, TREM2 and ARG1) appeared modified
- TNFα, IL1β and iNOS (M1) expression levels ([1]; 3 μM with 10 μM Aβ1-42, 8 days): does not modify
- IC50 [2]: 3.6 µM
- inhibitory activity on COX-1 (COX-1): does not display inhibitory activity
- inhibitory activity on COX-2 (COX-2): does not display inhibitory activity
- effects on Notch intracellular cleavage [3]: no effects were observed
- expression profile of several NICD-responsive genes (NICD-responsive genes): does not alter
- oral absorption ([4]; oral): 74%
- plasma elimination t1/2 [4]: 12 h
- oral absorption [5]: 50%
- brain levels as % of the corresponding plasma concentrations [6]: 3-14%
- plasma elimination half-life t1/2 ([7]; after oral administration): ≈ 30 hours
- brain penetration [7]: 3-9%
- oral absorption ([8]; oral route): 80-100%
- plasma elimination t1/2 [8]: ≈ 24 hours
- tolerability ([9]; 60 mg/kg/day, prolonged treatment for 4-9 months): well tolerated
- neuropathological and behavioral activity ([9]; oral doses of 60 mg/kg/day): active
- TNFα level in cerebrospinal fluid (TNFα): reduce TNFα level

Structure (SMILES): CC(C)[C@H](O)C(=O)N[C@@H](C)C(=O)N[C@@H]1C(=O)N(C)CCc2ccccc21 [semagacestat]
- cognition and ability to complete activities of daily living versus placebo (AD patients; interim analysis of two Phase 3 trials): worsened over time to a statistically significantly higher rate
- rate of skin cancer compared to placebo (AD patients; two 21-month Phase 3 trials, more than 2,600 AD patients): increased rate of skin cancer
- dendritic spine density (dendritic spine density): decrease dendritic spine density

Reference: US20150065567A1, “1-PHENYLALKANECARBOXYLIC ACID DERIVATIVES FOR THE TREATMENT OF ALZHEIMER'S DISEASE AND MULTIPLE SCLEROSIS” (Chiesi Farmaceutici S.p.A., priority 2013, published 2015)
